Measured values as given in patent US7754740B2, “1H-indole-3-carboxylic acid derivatives and their use as PPAR agonists” (Merck Patent GmbH, priority 2005, dated 2010).

Biological target: T1, chimeric protein PPARγ-Gal4 (Homo sapiens, UniProt P37231)
T1 construct: Gal4 (yeast transcription factor); expressed in transfected cells; host or cells: CV-1 cells (monkey kidney cells)
T1 sequence (P37231 238-503 limits assumed): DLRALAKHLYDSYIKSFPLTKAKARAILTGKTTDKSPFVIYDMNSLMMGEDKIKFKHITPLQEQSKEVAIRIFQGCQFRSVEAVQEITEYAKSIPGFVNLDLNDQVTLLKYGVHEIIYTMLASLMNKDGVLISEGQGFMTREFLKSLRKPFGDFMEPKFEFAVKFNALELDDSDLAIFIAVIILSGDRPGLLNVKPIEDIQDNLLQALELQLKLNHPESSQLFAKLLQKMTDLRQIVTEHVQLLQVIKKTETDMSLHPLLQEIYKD
Assay: PPARγ-Gal4 transactivation (luciferase reporter) test in cotransfected CV-1 cells
Format: cell-based
Protocol: The measurement of the PPAR activation was performed according to a technique described by Lehmann et al. (J. Biol. Chem., 270, (1995),
CV-1 cells (monkey kidney cells) are cotransfected with an expression vector for the chimeric protein PPARγ-Gal4 and with a “reporter” plasmid that allows expression of the luciferase gene placed under the control of a promoter comprising Gal4 response elements.
The cells are seeded in 96-well microplates and cotransfected using a commercial reagent with the reporter plasmid (pG5-tk-pGL3) and the expression vector for the chimeric protein (PPARγ-Gal4). After incubation for 4 hours, whole culture medium (comprising 10% foetal calf serum) is added to the wells. After 24 hours, the medium is removed and replaced with whole medium comprising the test products. The products are left in contact with the cells for 18 hours. The cells are then lysed and the luciferase activity is measured using a luminometer. A PPARγ activation factor can then be calculated by means of the activation of the expression of the reporter gene induced by the product (relative to the control cells that have received no product).
In the absence of the PPARγ ligand binding domain (vector expressing Gal4 alone), the luciferase activity measured in the presence of an agonist is zero.
The following transactivation result was obtained with a concentration of 50 μM on PPARγ.
The transactivation test using the expression of a chimeric protein Gal-4-PPARγ makes it possible to determine also whether an agonist functions as a “full” agonist or as a “partial” agonist in this system.
An agonist is “partial” in this system if it induces a weaker response, i.e. it has lower efficacy, than rosiglitazone, which is a “full” agonist. In concrete terms, in our system, the transactivation obtained at the plateau with a partial agonist will be between 20% and 50% of the maximum response (efficacy) at the plateau of rosiglitazone.

Structure (SMILES)	Activation factor of the chimeric protein PPARγ-Gal4 (50 μM, CV-1 cells (monkey kidney cells), 18 hours contact, luciferase reporter, relative to control cells without product (= 1))	Concentration to reach the maximum stimulation of the PPARγ chimeric protein (Gal4-PPARγ transactivation test, CV-1 cells) [µM]	Emax (transactivation at the plateau as % of the maximum response (efficacy) of rosiglitazone, CV-1 cells, read-out: Maximum stimulation of the PPARγ chimeric protein obtained with rosiglitazone) [%]
CCOC(=O)c1c(C)n(Cc2ccccc2)c2cc(-c3cccnc3)c(OCCCC(=O)O)cc12 [Example 4, Ethyl-benzyl-5-(3-carboxypropoxy)-2-methyl-6-pyrid-3-yl-1H-indole-3-carboxylate]	17		
CCOC(=O)c1c(C)n(CCOC)c2cc(CCCC3CCCC3)c(OCCCC(=O)O)cc12 [Example 31, ethyl 5-(3-carboxypropoxy)-6-(3-cyclopentylpropyl)-1-(2-methoxyethyl)-2-methyl-1H-indole-3-carboxylate]		1	24
